We go through six compounds from patent US10351500B2, “Method of using of dihydro-resveratrol or its stilbenoid derivatives and/or chemical variants as antimicrobial agents” (Hong Kong Baptist University, priority 2015, dated 2019).

Experiment [1] deals with Trichophyton mentagrophytes. Kind of experiment: anti-fungal growth inhibition, T. mentagrophytes. The experiment is classed as cell-based. To be noted: for inhibition at 25 µM / inhibition at 50 µM / inhibition at 100 µM: Trichophyton mentagrophytes, 168 h; for inhibition at 25 µM: read-out: Inhibition rate (25 μM); for inhibition at 50 µM: read-out: Inhibition rate (50 μM); for inhibition at 100 µM: read-out: Inhibition rate (100 μM). As to the method: (§1) Evaluation of anti-fungal activity. In a single well of the 96-well microplate, 10 μL of the testing compound is added into 190 μL of growth medium (Difco™ YM) containing an overnight culture of Trichophyton rubrum or Trichophyton mentagrophytes at a density of approximately 5×10^5 CFU. The testing compounds include dihydro-resveratrol and DR1 to DR11. Wells incubated with 10 μL 0.5% DMSO only (i.e. no testing compound) are served as the experimental control of fungal growth whilst those incubated with growth medium only (i.e. no fungi) are served as the negative control. […] The percentage of growth inhibition of T. mentagrophytes by the different concentrations of testing compounds is shown in Table 10 whilst the percentage of growth inhibition of T. rubrum is shown in Table 11. The images of T. mentagrophytes culture are captured post treatment of dihydro-resveratrol (100 μM) and DR8 (100 μM) when compared to the growth of experimental control and negative control (FIG. 30).

For a further experiment, the system named is Streptococcus mutans. The experiment can be described thus: anti-bacterial growth inhibition, S. mutans. The experiment is classed as cell-based. The conditions noted are these: for inhibition at 25 µM / inhibition at 50 µM / inhibition at 100 µM: Streptococcus mutans; for inhibition at 25 µM: read-out: Inhibition rate (25 μM); for inhibition at 50 µM: read-out: Inhibition rate (50 μM); for inhibition at 100 µM: read-out: Inhibition rate (100 μM). As to the method: (§2) Evaluation of anti-bacterial activity. In a single well of the 96-well microplate, 10 μL of the testing compound is added into 190 μL of growth medium growth medium (BBL™ Brain Heart Infusion) containing an overnight culture of Streptococcus mutans or Streptococcus sobrinus at a density of approximately 5×10^5 CFU. The testing compounds include dihydro-resveratrol and DR1 to DR11. Wells incubated with 10 μL 0.5% DMSO only (i.e. no testing compound) are served as the experimental control of bacterial growth whilst those incubated with growth medium only (i.e. no bacteria) are served as the negative control. […] The percentage of growth inhibition of S. mutans by the different concentrations of testing compounds is shown in Table 12 whereas the percentage of growth inhibition of S. sobrinus is shown in Table 13. The images of S. mutans culture are captured post treatment of dihydro-resveratrol (100 μM) and DR8 (100 μM) when compared to the growth of experimental control and negative control (FIG. 31).

The subject of the next experiment is Streptococcus sobrinus. Kind of experiment: anti-bacterial growth inhibition, S. sobrinus. The experiment is classed as cell-based. To be noted: for inhibition at 25 µM / inhibition at 50 µM / inhibition at 100 µM: Streptococcus sobrinus; for inhibition at 25 µM: read-out: Inhibition rate (25 μM); for inhibition at 50 µM: read-out: Inhibition rate (50 μM); for inhibition at 100 µM: read-out: Inhibition rate (100 μM). As to the method: as §2

The nature of experiment [2]: ABTS radical decolorization assay (antioxidant capacity). Type of experiment: biochemical. To be noted: 15 min, 734 nm.
The test system of the next experiment is Trichophyton rubrum. The experiment can be described thus: anti-fungal growth inhibition, T. rubrum. Type of experiment: cell-based. The conditions noted are these: for inhibition at 25 µM / inhibition at 50 µM / inhibition at 100 µM: Trichophyton rubrum, 168 h; for inhibition at 25 µM: read-out: Inhibition rate (25 μM); for inhibition at 50 µM: read-out: Inhibition rate (50 μM); for inhibition at 100 µM: read-out: Inhibition rate (100 μM). As to the method:
as §1

In experiment [3] the test system is HCT-116 human colorectal carcinoma xenograft tumor. Kind of experiment: HCT-116 nude mouse xenograft model. Type of experiment: in vivo, BALB/c nude mice. To be noted: i.p. every other day, 5-FU 25 mg/kg, D-res 100 mg/kg. An excerpt: All animal studies were approved and performed according to Animal Care and Use Guidelines of the Animal Ethics Committee at Hong Kong Baptist University. BALB/c nude mice, SPF class, male, 6-8 weeks old, were purchased from BioLASCO, Taiwan. Before the xenograft experiment, the mice were acclimatized to SPF class laboratory conditions for a week.
HCT-116 cells in logarithmic growth phase were collected by trypsinization. After centrifugation and rinsing, cells were re-suspended in serum-free DMEM medium at 3×10^7 cells/mL. Nude mice were skin disinfected with 75% medical ethanol, subcutaneously injected with 100 μL of the HCT-116 cell suspension using a 25-G syringe to their left flank. The same procedure was repeated for the tumor cell injection to the right flank.
Seven days after tumor cell injection, 24 mice with tumor volumes of 32 mm^3 to 178 mm^3 were randomly assigned into 3 groups; the average initial tumor volumes in each group of mice were 78.04±7.76 mm^3 (vehicle, 8 mice), 78.76±9.40 mm^3 (5-FU, 8 mice), 78.01±7.75 mm^3 (D-res, 8 mice) respectively.
Vehicle solution: 2.5% Ethanol and Cremphor EL (1:1 v/v) dissolved in physiological saline.
5-FU solution: 5-FU powder was dissolved in 2.5% Ethanol and Cremphor EL to a concentration of 5 mg/mL.
D-res solution: Dihydro-resveratrol powder was dissolved in 2.5% Ethanol and Cremphor EL solution to a concentration of 20 mg/mL.
Vehicle group (n=8): 2.5% Ethanol and Cremphor EL solution was intraperitoneally injected every other day for 21 days.
5-FU group (n=8): 5-FU solution was given to mice at 25 mg/kg by intraperitoneal injection every other day for 21 days.
D-res group (n=8): D-res solution was given to mice at 100 mg/kg by intraperitoneal injection every other day for 21 days. This is equivalent to a dosage of no less than 8.13 mg/kg of bodily weight in human.

Where [4] appears, read: T. mentagraphytes, 25 μM, one week, 30° C., OD 510 nm.
Setting [5] is: T. mentagraphytes, 50 μM, one week, 30° C., OD 510 nm.
The mark [6] stands for this setting: T. mentagraphytes, 100 μM, one week, 30° C., OD 510 nm.
[7] abbreviates: S. mutans, 25 μM, 10 hours, 30° C., OD 600 nm.
Setting [8] is: S. mutans, 50 μM, 10 hours, 30° C., OD 600 nm.
Where [9] appears, read: S. mutans, 100 μM, 10 hours, 30° C., OD 600 nm.
Setting [10] is: S. sobrinus, 25 μM, 10 hours, 30° C., OD 600 nm.
Where [11] appears, read: S. sobrinus, 50 μM, 10 hours, 30° C., OD 600 nm.
The mark [12] stands for this setting: S. sobrinus, 100 μM, 10 hours, 30° C., OD 600 nm.
The mark [13] stands for this setting: T. rubrum, 25 μM, one week, 30° C., OD 510 nm.
The mark [14] stands for this setting: T. rubrum, 50 μM, one week, 30° C., OD 510 nm.
Setting [15] is: T. rubrum, 100 μM, one week, 30° C., OD 510 nm.

SMILES strings stand for the structures. Where two headings read alike, the source gives them in different places.

A word on the inhibition: it is the drop in the measured response relative to a control, in per cent. As to `COc1ccc(C(=O)Oc2ccc(CCc3cc(OC(=O)c4ccc(OC)cc4)cc(OC(=O)c4ccc(OC)cc4)c3)cc2)cc1` [DR6], the inhibition at 25 µM in experiment [1] (setting [4]) came to 3.33%; in the experiment with Streptococcus mutans (setting [7]), 6.52%; with Streptococcus sobrinus (setting [10]), 5.99%; in the experiment on Trichophyton rubrum (setting [13]), 5.81%. The inhibition at 50 µM in experiment [1] (setting [5]) came to 8.01%; with Streptococcus mutans (setting [8]), 4.36%; with Streptococcus sobrinus (setting [11]), 15.7%; in the experiment with Trichophyton rubrum (setting [14]), 2.49%. Moreover, the inhibition at 100 µM in experiment [1] (setting [6]) is 21.6%; with Streptococcus mutans (setting [9]) it was 5.96%; in the experiment with Streptococcus sobrinus (setting [12]), 7.54%; in the experiment on Trichophyton rubrum (setting [15]) it was 20.9%. The “Trolox equivalent (mg), antioxidant capacity” value (from here on “Trolox equivalent (mg)”) in experiment [2] turned out to be 0 mg.
As for `CC(C)(C)C(=O)Oc1ccc(CCc2cc(OC(=O)C(C)(C)C)cc(OC(=O)C(C)(C)C)c2)cc1` [DR11], the inhibition at 25 µM came out at 13.1% in experiment [1] (setting [4]), 5.49% in the experiment with Streptococcus mutans (setting [7]), 10.5% in the experiment on Streptococcus sobrinus (setting [10]) and 8.1% in the experiment on Trichophyton rubrum (setting [13]). Also, the inhibition at 50 µM in experiment [1] (setting [5]) was 13.4%; in the experiment on Streptococcus mutans (setting [8]) it was 6.86%; with Streptococcus sobrinus (setting [11]) it was 12.6%; with Trichophyton rubrum (setting [14]), 7.58%. Further, the inhibition at 100 µM is 9.36% in experiment [1] (setting [6]), 4.13% with Streptococcus mutans (setting [9]), 0.18% in the experiment on Streptococcus sobrinus (setting [12]) and 9.54% in the experiment on Trichophyton rubrum (setting [15]). For the same compound, in experiment [2], the “Trolox equivalent (mg)” value turned out to be 0 mg.
For `O=C(Oc1ccc(CCc2cc(OC(=O)c3ccccc3)cc(OC(=O)c3ccccc3)c2)cc1)c1ccccc1` [DR7], the inhibition at 25 µM was found to be 3.79% in experiment [1] (setting [4]), 10.1% in the experiment with Streptococcus mutans (setting [7]), 6.33% with Streptococcus sobrinus (setting [10]) and 3.06% in the experiment with Trichophyton rubrum (setting [13]). For the same compound, the inhibition at 50 µM in experiment [1] (setting [5]) turned out to be 0.44%; in the experiment with Streptococcus mutans (setting [8]) it was 1.55%; in the experiment with Streptococcus sobrinus (setting [11]) it was 14.2%; in the experiment on Trichophyton rubrum (setting [14]), 6.17%. For the same compound, the inhibition at 100 µM in experiment [1] (setting [6]) was determined as 18.6%; in the experiment with Streptococcus mutans (setting [9]), 2.48%; in the experiment with Streptococcus sobrinus (setting [12]), 12.5%; with Trichophyton rubrum (setting [15]) it was 11.6%. For the same compound, in experiment [2], the “Trolox equivalent (mg)” value is 0 mg.
With `O=C(Cc1ccccc1)Oc1ccc(CCc2cc(OC(=O)Cc3ccccc3)cc(OC(=O)Cc3ccccc3)c2)cc1` [DR10], the inhibition at 25 µM turned out to be 3.14% in experiment [1], 3.42% in the experiment with Streptococcus mutans (10 h), 13.8% with Streptococcus sobrinus (10 h) and 8.53% with Trichophyton rubrum. The inhibition at 50 µM in experiment [1] amounted to 12.6%; with Streptococcus mutans (10 h), 3.56%; with Streptococcus sobrinus (10 h), 11.3%; in the experiment with Trichophyton rubrum it was 6.36%. The inhibition at 100 µM was found to be 20.9% in experiment [1], 2.44% with Streptococcus mutans (10 h), 15.8% in the experiment on Streptococcus sobrinus (10 h) and 10.7% with Trichophyton rubrum. For the same compound, the “Trolox equivalent (mg)” value in experiment [2] is on record as 0 mg.
`C=CC(=O)Oc1ccc(CCc2cc(OC(=O)C=C)cc(OC(=O)C=C)c2)cc1` [DR8]: the “inhibitory effect among the testing compounds” value in experiment [1] (T. mentagraphytes, one-week incubation) was “highest inhibitory effect”; with Streptococcus mutans (S. mutans, 10-hour incubation) it was “highest inhibitory effect”; in the experiment with Streptococcus sobrinus (S. sobrinus, 10-hour incubation), “highest inhibitory effect”; in the experiment on Trichophyton rubrum (T. rubrum, one-week incubation), “highest inhibitory effect”. For the same compound, the inhibition at 25 µM in experiment [1] (setting [4]) came out at 83.1%; in the experiment with Streptococcus mutans (setting [7]), 17.1%; with Streptococcus sobrinus (setting [10]), 22.7%; in the experiment with Trichophyton rubrum (setting [13]) it was 78.9%. The inhibition at 50 µM amounted to 80.7% in experiment [1] (setting [5]), 17.6% with Streptococcus mutans (setting [8]), 43.8% in the experiment on Streptococcus sobrinus (setting [11]) and 77.8% with Trichophyton rubrum (setting [14]). In addition, the inhibition at 100 µM amounted to 78.8% in experiment [1] (setting [6]), 68% in the experiment with Streptococcus mutans (setting [9]), 79.3% in the experiment with Streptococcus sobrinus (setting [12]) and 77.7% in the experiment with Trichophyton rubrum (setting [15]). The “Trolox equivalent (mg)” value in experiment [2] was found to be 15.893 mg.
As to `O=c1[nH]cc(F)c(=O)[nH]1` [Compound 5-FU, fluorouracil, reference compound], the “Tumor Volume (mm^3)” value in experiment [3] (Day 1 (initial)) amounted to 78.76 ± 9.40 mm^3; in experiment [3] (Day 4) it was 128.05 ± 12.25 mm^3; in experiment [3] (Day 7), 187.75 ± 21.56 mm^3; in experiment [3] (Day 10), 286.6 ± 28.89 mm^3; in experiment [3] (Day 13), 419.1 ± 45.77 mm^3; in experiment [3] (Day 16), 489.8 ± 160.66 mm^3. The results for the “Tumor Volume (mm^3)” value in experiment [3] (Day 19), in experiment [3] (Day 21) and in experiment [3] (Day 22) were 514.17 ± 160.66 mm^3, 583.6 ± 160.66 mm^3 and 655.69 ± 160.66 mm^3, respectively. For the same compound, the “Tumor weight” value in experiment [3] (treated for 21 days) amounted to 0.68 ± 0.08 g.
